The results in this text go back to PMC3835060 (2013).

The test system of experiment [1] is HTS (human telomere sequence) d[AG3(TTAG3)3] (DNA, G4) AGGGTTAGGGTTAGGGTTAGGG
Nature of the experiment: NMR titration (chemical shifts, intermolecular NOEs). Conditions: 50 mM NaCl; pH 7, 283 K; binds at both loop ends.

For experiment [2] the test system is unchanged. As to the kind of experiment: luminescence titration. Conditions: 200 mM KCl, 10 mM potassium phosphate, 1 mM K2EDTA, pH 7.0, 298 K, error ±20%.
Experiment [3] shares this test system. As to the kind of experiment: NMR titration (chemical shifts, line broadening). Conditions: 50 mM NaCl, pH 7, 298 K.
Setting [4] is: 7 μM complex, one-set-of-sites fit.

Regarding `[Ru+2].[Ru+2].c1ccc(-c2ccccn2)nc1.c1ccc(-c2ccccn2)nc1.c1ccc(-c2ccccn2)nc1.c1ccc(-c2ccccn2)nc1.c1cnc2c(c1)c1nc3c4cccnc4c4ncccc4c3nc1c1cccnc12`, the binding result in experiment [1] was “yes”. Regarding `[Ru+2].[Ru+2].c1cnc2c(c1)c1nc3c4cccnc4c4ncccc4c3nc1c1cccnc12.c1cnc2c(c1)ccc1cccnc12.c1cnc2c(c1)ccc1cccnc12.c1cnc2c(c1)ccc1cccnc12.c1cnc2c(c1)ccc1cccnc12`, the Kb in experiment [2] (apparent, diastereomeric mixture) is 1.77 × 10^7 M^–1. For `[Ru+2].[Ru+2].c1cnc2c(c1)c1nc3c4cccnc4c4ncccc4c3nc1c1cccnc12.c1cnc2c(c1)ccc1cccnc12.c1cnc2c(c1)ccc1cccnc12.c1cnc2c(c1)ccc1cccnc12.c1cnc2c(c1)ccc1cccnc12` [ΔΔ-2], the Kb in experiment [2] (setting [4]) is listed as 2.95 × 10^5 M^–1. The binding result in experiment [3] (binds mainly at lateral loop end) is given as “yes”. As to `[Ru+2].[Ru+2].c1cnc2c(c1)c1nc3c4cccnc4c4ncccc4c3nc1c1cccnc12.c1cnc2c(c1)ccc1cccnc12.c1cnc2c(c1)ccc1cccnc12.c1cnc2c(c1)ccc1cccnc12.c1cnc2c(c1)ccc1cccnc12` [ΛΛ-2], in experiment [2] (setting [4]), the Kb is listed as 1.16 × 10^7 M^–1. Besides, the binding entry in experiment [3] (binds at both ends) was “yes”.
